What is called IC50 is the concentration that inhibits the measured activity by half.

The test system of experiment [1] is Platelet-rich plasma (PRP). The experiment in a line: Platelet aggregation in man induced by the TXA2 agonist U46619. Type of experiment: cell-based. The settings on record: human PRP, U46619 1 μM. Here is the method: (§1) Platelet aggregation in man
(§2) Venous blood is obtained from human volunteers who have not taken aspirin for at least 14 days prior to the experiment. The blood is removed over sodium citrate (0.109 M) (1 vol. of citrate over 9 vol. of blood). Platelet-rich plasma (PRP) is obtained by centrifugation (20° C.) at 200 g for 10 minutes. The number of platelets is on average 250000 PL/mm^3. The PRP is stored at room temperature until the test and is used within 2 hours of having been taken. The TXA2 agonist U46619 is used at a concentration of 1 μM and 5-hydroxytryptamine is used at a concentration of 10 μM, the latter in the presence of 0.3 μM adenosine diphosphate and 1 μM adrenalin.
(§3) The values indicate that the compounds of the invention are powerful platelet anti-aggregants, which act in a balanced manner on the two activation routes, that of TXA2 and that of serotonin.

The subject of experiment [2] is Platelet-rich plasma (PRP). The experiment is described as follows: Platelet aggregation in man induced by 5-hydroxytryptamine. Type of experiment: cell-based. The settings on record: human PRP, 5-hydroxytryptamine 10 μM in the presence of 0.3 μM adenosine diphosphate and 1 μM adrenalin, read-out: IC50, platelet aggregation produced by 5-hydroxytryptamine. The protocol:
as §1, §2, §3

Consider `O=C(O)CCc1cc(CCN2CCC(c3nsc4cc(F)ccc34)CC2)cc2c1CCC(NS(=O)(=O)c1ccc(Cl)cc1)C2` (centres unmarked) [Example 4, 3-(6-{[(4-Chlorophenyl)sulphonyl]amino}-3-{2-[4-(6-fluoro-1,2-benzisothiazol-3-yl)-1-piperidinyl]ethyl}-5,6,7,8-tetrahydro-1-naphthyl)propanoic acid], for which the IC50 in experiment [1] came to 170 nM; in experiment [2], 230 nM.

Source of the values: patent US6545037B2, “Benzenesulfonamide compounds” (Les Laboratoires Servier, priority 2000, dated 2003).
